From patent US7138361B2, “Herbicidal heterocycles” (E. I. du Pont de Nemours and Company, priority 2000, dated 2006)

Key:
Format in all cases: in vivo
Sunflower = experiment: Test C preemergence; conditions: Rate 500 g/ha, visual evaluation after 12 to 14 days
[1] = tested on: yellow nutsedge (Cyperus esculentus); experiment: Test C preemergence; conditions: for Plant response rating, Nutsedge: scale 0 to 100, 0 no effect, 100 complete control; for Plant response rating (0 to 100), Nutsedge: Rate 500 g/ha, visual evaluation after 12 to 14 days
Source text: (§1) Seeds of plant species selected from bermudagrass (Cynodon dactylon), Surinam grass (Brachiaria decumbens), cocklebur (Xanthium strumarium), corn (Zea mays), crabgrass (Digitaria sanguinalis), woolly cupgrass (Eriochloa villosa), giant foxtail (Setaria faberii), goosegrass (Eleusine indica), johnsongrass (Sorghum halepense), kochia (Kochia scoparia), lambsquarters (Chenopodium album), morningglory (Ipomoea hederacea), yellow nutsedge (Cyperus esculentus), pigweed (Amaranthus retroflexus), common ragweed (Ambrosia elatior), soybean (Glycine max) and velvetleaf (Abutilon theophrasti) were planted and treated preemergence with test chemicals formulated in a non-phytotoxic solvent mixture which included a surfactant.
(§2) At the same time, plants selected from these crop and weed species and also winter barley (Hordeum vulgare), blackgrass (Alopecurus myosuroides), canary grass (Phalaris minor), chickweed (Stellaria media), downy brome (Bromus tectorum), green foxtail (Setaria viridis), Italian ryegrass (Lolium multiflorum), wheat (Triticum aestivum), wild oat (Avena fatua) and windgrass (Apera spica-venti) were treated with postemergence applications of some of the test chemicals formulated in the same manner. Plants ranged in height from 2 to 18 cm (1- to 4-leaf stage) for postemergence treatments. Plant species in the flooded paddy test consisted of rice (Oryza saliva), smallflower flatsedge (Cyperus difformis), duck salad (Heteranthera limosa) and barnyardgrass (Echinochloa crus-galli) grown to the 2-leaf stage for testing. Treated plants and controls were maintained in a greenhouse for 12 to 14 days, after which time all species were compared to controls and visually evaluated. Plant response ratings, summarized in Table C, are based on a scale of 0 to 100 where 0 is no effect and 100 is complete control. A dash (-) response means no test result.

corn (Zea mays) [2] = experiment: Test C preemergence; conditions: for Plant response rating, Corn: scale 0 to 100, 0 no effect, 100 complete control; for Plant response rating (0 to 100), Corn: visual evaluation after 12 to 14 days
Source text: as §1, §2

[3] = tested on: bermudagrass (Cynodon dactylon); experiment: Test C preemergence; conditions: for Plant response rating, Bermudagrass: scale 0 to 100, 0 no effect, 100 complete control; for Plant response rating (0 to 100 where 0 is no effect and 100 is complete control), Bermudagrass: visual evaluation after 12 to 14 days
Source text: as §1, §2

kochia (Kochia scoparia) = experiment: Test C preemergence; conditions: for Plant response rating, Kochia: scale 0 to 100, 0 no effect, 100 complete control; for Plant response rating (0 to 100), Kochia: visual evaluation after 12 to 14 days
Source text: as §1, §2

[4] = tested on: johnsongrass (Sorghum halepense); experiment: Test C preemergence; conditions: for Plant response rating, Johnsongrass: scale 0 to 100, 0 no effect, 100 complete control; for Plant response rating (0 to 100), Johnsongrass: visual evaluation after 12 to 14 days
Source text: as §1, §2

[5] = tested on: morningglory (Ipomoea hederacea); experiment: Test C preemergence; conditions: for Plant response rating, Morningglory: scale 0 to 100, 0 no effect, 100 complete control; for Plant response rating (0 to 100), Morningglory: Rate 500 g/ha, visual evaluation after 12 to 14 days
Source text: as §1, §2

[6] = tested on: giant foxtail (Setaria faberii); experiment: Test C preemergence; conditions: for Plant response rating, Foxtail, Giant: scale 0 to 100, 0 no effect, 100 complete control; for Plant response rating (0 to 100), Foxtail, Giant: visual evaluation after 12 to 14 days
Source text: as §1, §2

[7] = tested on: velvetleaf (Abutilon theophrasti); experiment: Test C preemergence; conditions: preemergence; for Plant response rating (0 to 100), Velvetleaf: Rate 500 g/ha, visual evaluation after 12 to 14 days; for Plant response rating, Velvetleaf: scale 0 to 100, 0 no effect, 100 complete control
Source text: as §1, §2

wild oat (Avena fatua) = experiment: Test B postemergence; conditions: 13 to 15 days
Method in brief: (§3)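 Pre: seeded pots sprayed, chemical in non-phytotoxic solvent/surfactant mix. Post: plants 2–18 cm, 1–4 leaf, same formulation. Greenhouse 13–15 d; visual % control vs untreated, 0–100 scale.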

[8] = tested on: wheat (Triticum aestivum); experiment: Test B postemergence; conditions: 13 to 15 days
Method in brief: as §3

corn (Zea mays) [9] = experiment: Test B postemergence; conditions: 13 to 15 days
Method in brief: as §3

[10] = tested on: cocklebur (Xanthium strumarium); experiment: Test B postemergence; conditions: 13 to 15 days
Method in brief: as §3

[11] = tested on: morning glory (Ipomoea hederacea); experiment: Test B postemergence; conditions: 13 to 15 days
Method in brief: as §3

[12] = tested on: pigweed (Amaranthus retroflexus); experiment: Test B postemergence; conditions: 13 to 15 days
Method in brief: as §3

[13] = tested on: lambsquarters (Chenopodium album); experiment: Test B postemergence; conditions: 13 to 15 days
Method in brief: as §3

[14] = tested on: barnyardgrass (Echinochloa crus-galli); experiment: Test B postemergence; conditions: 13 to 15 days
Method in brief: as §3

[15] = tested on: blackgrass (Alopecurus myosuroides); experiment: Test B postemergence; conditions: 13 to 15 days
Method in brief: as §3

[16] = tested on: giant foxtail (Setaria faberii); experiment: Test B postemergence; conditions: 13 to 15 days
Method in brief: as §3

[17] = tested on: velvetleaf (Abutilon theophrasti); experiment: Test B postemergence; conditions: 13 to 15 days
Method in brief: as §3

[18] = tested on: crabgrass (Digitaria sanguinalis); experiment: Test B postemergence; conditions: 13 to 15 days
Method in brief: as §3

[19] = tested on: Surinam grass (Brachiaria decumbens); experiment: Test B postemergence; conditions: 13 to 15 days
Method in brief: as §3

[20] = Rate 125 g/ha, scale 0 (no effect) to 100 (complete control)
[21] = Rate 500 g/ha, scale 0 to 100, 0 is no effect, 100 is complete control

CCC(C)c1ccn(C2OCN(c3cccc(OC(F)(F)F)c3)C2=O)n1 (centres unmarked) [Compound 67]
90: Plant response rating, Kochia (kochia (Kochia scoparia); Rate 62 g/ha) | Plant response rating (0 to 100), Kochia (kochia (Kochia scoparia); preemergence, Rate 250 g/ha) | Plant response rating, Lambsquarters [13, 20] | Plant response rating, Barnyardgrass [14, 20]
20: Plant response rating (0 to 100), Nutsedge ([1]; preemergence) | Plant response rating (0 to 100), Morningglory ([5]; preemergence) | Plant response rating, Foxtail, Giant [16, 20] | Plant response rating, Velvetleaf [17, 21]
50: Plant response rating, Velvetleaf ([7]; Rate 125 g/ha) | Plant response rating, Crabgrass [18, 20]
100: Plant response rating (0 to 100), Corn (corn (Zea mays) [2]; preemergence, Rate 500 g/ha) | Plant response rating, Bermudagrass ([3]; Rate 62 g/ha) | Plant response rating (0 to 100 where 0 is no effect and 100 is complete control), Bermudagrass ([3]; preemergence, Rate 250 g/ha) | Plant response rating (0 to 100 where 0 is no effect and 100 is complete control), Bermudagrass ([3]; preemergence, Rate 500 g/ha) | Plant response rating, Bermudagrass ([3]; preemergence, Rate 125 g/ha) | Plant response rating (0 to 100), Kochia (kochia (Kochia scoparia); preemergence, Rate 500 g/ha) | Plant response rating, Kochia (kochia (Kochia scoparia); preemergence, Rate 125 g/ha) | Plant response rating (0 to 100), Johnsongrass ([4]; preemergence, Rate 250 g/ha) | Plant response rating (0 to 100), Johnsongrass ([4]; preemergence, Rate 500 g/ha) | Plant response rating, Foxtail, Giant ([6]; Rate 62 g/ha) | Plant response rating (0 to 100), Foxtail, Giant ([6]; preemergence, Rate 500 g/ha) | Plant response rating, Foxtail, Giant ([6]; preemergence, Rate 125 g/ha) | Plant response rating, Lambsquarters [13, 21] | Plant response rating, Barnyardgrass [14, 21] | Plant response rating, Crabgrass [18, 21]
60: Plant response rating, Johnsongrass ([4]; preemergence, Rate 125 g/ha) | Plant response rating, Cocklebur [10, 21]
70: Plant response rating (0 to 100), Foxtail, Giant ([6]; preemergence, Rate 250 g/ha)
40: Plant response rating, Nutsedge ([1]; preemergence, Rate 125 g/ha) | Plant response rating, Foxtail, Giant [16, 21]
30: Plant response rating (0 to 100), Sunflower (Sunflower) | Plant response rating, Johnsongrass ([4]; Rate 62 g/ha) | Plant response rating (0 to 100), Velvetleaf [7] | Plant response rating, Surinam grass [19, 20] | Plant response rating, Surinam grass [19, 21]
0: Plant response rating, Nutsedge ([1]; Rate 62 g/ha) | Plant response rating, Nutsedge ([1]; preemergence, Rate 250 g/ha) | Plant response rating, Corn (corn (Zea mays) [2]; Rate 62 g/ha) | Plant response rating (0 to 100), Corn (corn (Zea mays) [2]; preemergence, Rate 250 g/ha) | Plant response rating, Corn (corn (Zea mays) [2]; preemergence, Rate 125 g/ha) | Plant response rating, Morningglory ([5]; Rate 62 g/ha) | Plant response rating, Morningglory ([5]; preemergence, Rate 125 g/ha) | Plant response rating, Morningglory ([5]; preemergence, Rate 250 g/ha) | Plant response rating, Velvetleaf ([7]; Rate 250 g/ha) | Plant response rating, Wild Oat (wild oat (Avena fatua); [20]) | Plant response rating, Wild Oat (wild oat (Avena fatua); [21]) | Plant response rating, Wheat [8, 20] | Plant response rating, Wheat [8, 21] | Plant response rating, Corn (corn (Zea mays) [9]; [20]) | Plant response rating, Corn (corn (Zea mays) [9]; [21]) | Plant response rating, Cocklebur [10, 20] | Plant response rating, Morningglory [11, 20] | Plant response rating, Morningglory [11, 21] | Plant response rating, Pigweed [12, 20] | Plant response rating, Pigweed [12, 21] | Plant response rating, Blackgrass [15, 20] | Plant response rating, Blackgrass [15, 21] | Plant response rating, Velvetleaf [17, 20]

CC1(c2ccn(C3SCN(c4cccc(OC(F)(F)F)c4)C3=O)n2)CC1 (centres unmarked) [Compound 63]
100: Plant response rating (0 to 100), Nutsedge ([1]; preemergence) | Plant response rating, Bermudagrass ([3]; Rate 62 g/ha) | Plant response rating (0 to 100 where 0 is no effect and 100 is complete control), Bermudagrass ([3]; preemergence, Rate 250 g/ha) | Plant response rating (0 to 100 where 0 is no effect and 100 is complete control), Bermudagrass ([3]; preemergence, Rate 500 g/ha) | Plant response rating, Bermudagrass ([3]; preemergence, Rate 125 g/ha) | Plant response rating (0 to 100), Kochia (kochia (Kochia scoparia); preemergence, Rate 250 g/ha) | Plant response rating (0 to 100), Kochia (kochia (Kochia scoparia); preemergence, Rate 500 g/ha) | Plant response rating, Kochia (kochia (Kochia scoparia); preemergence, Rate 125 g/ha) | Plant response rating (0 to 100), Johnsongrass ([4]; preemergence, Rate 250 g/ha) | Plant response rating (0 to 100), Johnsongrass ([4]; preemergence, Rate 500 g/ha) | Plant response rating (0 to 100), Foxtail, Giant ([6]; preemergence, Rate 250 g/ha) | Plant response rating (0 to 100), Foxtail, Giant ([6]; preemergence, Rate 500 g/ha)
20: Plant response rating, Nutsedge ([1]; preemergence, Rate 250 g/ha) | Plant response rating (0 to 100), Corn (corn (Zea mays) [2]; preemergence, Rate 250 g/ha) | Plant response rating, Morningglory ([5]; preemergence, Rate 125 g/ha) | Plant response rating, Foxtail, Giant ([6]; Rate 62 g/ha)
60: Plant response rating (0 to 100), Sunflower (Sunflower) | Plant response rating, Johnsongrass ([4]; preemergence, Rate 125 g/ha) | Plant response rating, Lambsquarters [13, 20] | Plant response rating, Barnyardgrass [14, 21] | Plant response rating, Crabgrass [18, 21]
30: Plant response rating, Morningglory ([5]; preemergence, Rate 250 g/ha) | Plant response rating, Velvetleaf ([7]; Rate 250 g/ha)
40: Plant response rating (0 to 100), Corn (corn (Zea mays) [2]; preemergence, Rate 500 g/ha) | Plant response rating (0 to 100), Morningglory ([5]; preemergence) | Plant response rating, Morningglory [11, 21]
90: Plant response rating, Foxtail, Giant ([6]; preemergence, Rate 125 g/ha)
80: Plant response rating, Lambsquarters [13, 21]
0: Plant response rating, Nutsedge ([1]; Rate 62 g/ha) | Plant response rating, Nutsedge ([1]; preemergence, Rate 125 g/ha) | Plant response rating, Corn (corn (Zea mays) [2]; Rate 62 g/ha) | Plant response rating, Corn (corn (Zea mays) [2]; preemergence, Rate 125 g/ha) | Plant response rating, Johnsongrass ([4]; Rate 62 g/ha) | Plant response rating, Morningglory ([5]; Rate 62 g/ha) | Plant response rating, Velvetleaf ([7]; Rate 125 g/ha) | Plant response rating, Wild Oat (wild oat (Avena fatua); [20]) | Plant response rating, Wild Oat (wild oat (Avena fatua); [21]) | Plant response rating, Wheat [8, 20] | Plant response rating, Wheat [8, 21] | Plant response rating, Corn (corn (Zea mays) [9]; [20]) | Plant response rating, Corn (corn (Zea mays) [9]; [21]) | Plant response rating, Cocklebur [10, 20] | Plant response rating, Morningglory [11, 20] | Plant response rating, Barnyardgrass [14, 20] | Plant response rating, Blackgrass [15, 20] | Plant response rating, Blackgrass [15, 21] | Plant response rating, Foxtail, Giant [16, 20] | Plant response rating, Velvetleaf [17, 20] | Plant response rating, Crabgrass [18, 20] | Plant response rating, Surinam grass [19, 20] | Plant response rating, Surinam grass [19, 21]
50: Plant response rating (0 to 100), Velvetleaf [7] | Plant response rating, Cocklebur [10, 21] | Plant response rating, Pigweed [12, 20] | Plant response rating, Foxtail, Giant [16, 21] | Plant response rating, Velvetleaf [17, 21]
70: Plant response rating, Kochia (kochia (Kochia scoparia); Rate 62 g/ha) | Plant response rating, Pigweed [12, 21]
